Measured values from ChEMBL document CHEMBL2331244, “Selective 3-phosphoinositide-dependent kinase 1 (PDK1) inhibitors: dissecting the function and pharmacology of PDK1” (J Med Chem, 2013).

Legend:
LNCaP = test: Antiproliferative activity against PTEN-deficient human LNCAP cells after 72 hrs by ATP ViaLight assay; format: functional, cell-based
T47D = test: Antiproliferative activity against human T47D cells harboring PI3KCA mutant after 72 hrs by ATP ViaLight assay; format: functional, cell-based
UMC-11 = test: Antiproliferative activity against human UMC11 cells after 72 hrs by ATP ViaLight assay; format: functional, cell-based; conditions: UMC-11, 72 h
MDA-MB-231 = test: Antiproliferative activity against human MDA-MB-231 cells harboring KRAS mutant after 72 hrs by ATP ViaLight assay; format: functional, cell-based; conditions: MDA-MB-231, 72 h
MDA-MB-453 = test: Antiproliferative activity against human MDA-MB-453 cells harboring PI3KCA mutant after 72 hrs by ATP ViaLight assay; format: functional, cell-based; conditions: MDA-MB-453, 72 h
[1] = Antiproliferative activity against PTEN-deficient human […] cells after 72 hrs by ATP ViaLight assay; format: functional, cell-based
MCF7 = test: Antiproliferative activity against human MCF7 cells harboring PI3KCA mutant after 72 hrs by ATP ViaLight assay; format: functional, cell-based; conditions: MCF7, 72 h
[2] = Antiproliferative activity against PTEN-deficient human U87 cells after 72 hrs by ATP ViaLight assay; format: functional, cell-based, U-87MG ATCC; conditions: U-87 MG
[3] = Antiproliferative activity against human NCI-H1915 cells harboring KRAS mutant after 72 hrs by ATP ViaLight assay; format: functional, cell-based; conditions: NCI-H1915, 72 h
LS-513 = test: Antiproliferative activity against human LS513 cells harboring KRAS mutant after 72 hrs by ATP ViaLight assay; format: functional, cell-based; conditions: LS-513, 72 h
HCT-116 = test: Antiproliferative activity against human HCT116 cells harboring PI3KCA/KRAS double mutant after 72 hrs by ATP ViaLight assay; format: functional, cell-based; conditions: HCT-116, 72 h
NCI-H1437 = test: Antiproliferative activity against human NCI-H1437 cells after 72 hrs by ATP ViaLight assay; format: functional, cell-based; conditions: NCI-H1437, 72 h
A-427 = test: Antiproliferative activity against human A427 cells harboring KRAS mutant after 72 hrs by ATP ViaLight assay; format: functional, cell-based; conditions: A-427, 72 h
A549 = test: Antiproliferative activity against human A549 cells harboring KRAS mutant after 72 hrs by ATP ViaLight assay; format: functional, cell-based; conditions: A549, 72 h
PC-3 = test: Antiproliferative activity against PTEN-deficient human PC3 cells after 72 hrs by ATP ViaLight assay; format: functional, cell-based; conditions: PC-3, 72 h
BT-474 = test: Antiproliferative activity against human BT474 cells harboring PI3KCA mutant after 72 hrs by ATP ViaLight assay; format: functional, cell-based; conditions: BT-474, 72 h
NCI-H446 = test: Antiproliferative activity against PTEN-deficient human NCI-H446 cells after 72 hrs by ATP ViaLight assay; format: functional, cell-based; conditions: NCI-H446, 72 h
[4] = target: T1, 3-phosphoinositide-dependent protein kinase 1 (Homo sapiens) (UniProt O15530); test: Agonist activity at PDK1 (unknown origin) using T308tide as substrate assessed as concentration required to elicit 50% response in presence of [gamma-32P]ATP
T1 sequence (whole entry): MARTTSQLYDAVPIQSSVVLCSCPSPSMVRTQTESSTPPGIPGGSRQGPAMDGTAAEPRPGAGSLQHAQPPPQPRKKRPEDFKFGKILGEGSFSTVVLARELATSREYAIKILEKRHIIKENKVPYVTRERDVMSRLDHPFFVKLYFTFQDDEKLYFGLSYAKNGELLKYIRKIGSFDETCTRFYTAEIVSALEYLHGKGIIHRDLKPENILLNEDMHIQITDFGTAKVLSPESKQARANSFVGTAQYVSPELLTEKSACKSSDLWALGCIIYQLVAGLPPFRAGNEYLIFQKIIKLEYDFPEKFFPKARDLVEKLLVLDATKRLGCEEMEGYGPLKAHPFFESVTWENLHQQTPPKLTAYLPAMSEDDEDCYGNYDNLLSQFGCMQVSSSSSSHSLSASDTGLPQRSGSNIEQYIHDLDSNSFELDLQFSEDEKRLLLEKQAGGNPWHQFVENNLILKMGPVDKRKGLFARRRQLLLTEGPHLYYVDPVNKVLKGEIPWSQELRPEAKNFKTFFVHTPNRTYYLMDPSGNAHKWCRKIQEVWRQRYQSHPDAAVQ

[5] = target: T2, 3-phosphoinositide-dependent protein kinase 1 (Homo sapiens, UniProt O15530); test: Inhibition of PDK1 (unknown origin)
T2 sequence (O15530 whole entry): T1 sequence (whole entry)

[6] = target: Serine/threonine-protein kinase mTOR (Homo sapiens, UniProt P42345); test: Inhibition of MTOR (unknown origin)
[7] = target: T2, 3-phosphoinositide-dependent protein kinase 1; test: Inhibition of recombinant PDK1 (unknown origin) using RPRAATF peptide as substrate assessed as substrate phosphorylation by scintillation counting analysis in presence of [gamma-32P]ATP
[8] = target: T1, 3-phosphoinositide-dependent protein kinase 1 (Homo sapiens); test: Agonist activity at human N-terminal His6-tagged PDK1 amino acid residues 51 to 359 expressed in insect sf21 cells using T308tide as substrate at 313 uM incubated for 60 mins prior to substrate addition measured after 60 mins by ATP depletion assay

## O=C(N[C@@H](COc1ccc2[nH]c(=O)[nH]c2c1)c1ccccc1)c1cccn(Cc2ccc(F)c(F)c2)c1=O
LNCaP
  EC50: > 9 µM
T47D
  EC50: > 9 µM
UMC-11
  EC50: > 9 µM
MDA-MB-231
  EC50: > 9 µM
MDA-MB-453
  EC50: > 9 µM
[1]
  EC50: > 9 µM
MCF7
  EC50: > 9 µM
[2]
  EC50: > 9 µM
[3]
  EC50: > 9 µM
LS-513
  EC50: > 9 µM
HCT-116
  EC50: > 9 µM
NCI-H1437
  EC50: > 9 µM
A-427
  EC50: > 9 µM
A549
  EC50: > 9 µM
PC-3
  EC50: > 9 µM
BT-474
  EC50: > 9 µM
NCI-H446
  EC50: > 9 µM

## O=C(O)CSC(CC(=O)c1ccc(Cl)cc1)c1ccccc1 (configuration not stated)
[4]
  Activity: 34 µM

## O=P(O)(O)O[C@@H]1[C@@H](OP(=O)(O)O)[C@@H](OP(=O)(O)O)[C@@H](OCc2ccccc2)[C@H](OP(=O)(O)O)[C@H]1OP(=O)(O)O
[5]
  IC50: 26.5 nM
[6]
  IC50: 1300 nM

## NC(N)=Nc1ccc(-n2nc(C(F)(F)F)cc2-c2ccc3c(ccc4ccccc43)c2)cc1
[7]
  IC50: 2000 nM

## COc1ccc(CC(C(=O)O)c2ccccc2)cc1 (configuration not stated)
[8]
  Activity: 33%
